Test results from patent US4298727A, “3',4'-Dideoxykanamycin A and 1-N-(S)-α-hydroxy-ω-aminoalkanoyl) derivatives thereof” (Zaidan Hojin Biseibutsu Kagaku KenkyuKai, priority 1979, dated 1981).
Values after ≈ are worked out from the molar mass of the structure shown. Where two headings read alike, the source gives them in different places.

What was measured:
resistant bacteria [1] = conditions: in words, background art; cited from earlier work
Sarcina lutea PCI 1001 = assay: MIC, standard serial dilution on nutrient agar; format: cell-based; conditions: Micrococcus luteus, PCI1001, 18 h
Providencia Pv 37 = assay: MIC, standard serial dilution on nutrient agar; format: cell-based; conditions: PV37, 37° C., 18 hours
Klebsiella THO = assay: MIC, standard serial dilution on nutrient agar; format: cell-based
[2] = system: Staphylococcus epidermides 109; assay: MIC, standard serial dilution on nutrient agar; format: cell-based
Proteus rettgeri AUB = assay: MIC, standard serial dilution on nutrient agar; format: cell-based; conditions: Providencia rettgeri
Escherichia coli K-12 = assay: MIC, standard serial dilution on nutrient agar; format: cell-based; conditions: K12, 37° C., 18 hours
[3] = system: Pseudomonas aeruginosa A3; assay: MIC, standard serial dilution on nutrient agar; format: cell-based
Klebsiella BRIA = assay: MIC, standard serial dilution on nutrient agar; format: cell-based
[4] = system: Escherichia coli K-12 ML 1629; assay: MIC, standard serial dilution on nutrient agar; format: cell-based; conditions: K12ML1629, 37° C., 18 hours
[5] = system: Staphylococcus aureus APOI; assay: MIC, standard serial dilution on nutrient agar; format: cell-based
Proteus vulgaris BAC = assay: MIC, standard serial dilution on nutrient agar; format: cell-based
Erwinia 7-22 = assay: MIC, standard serial dilution on nutrient agar; format: cell-based; conditions: 722, 37° C., 18 hours
Pyocyanique = assay: MIC, standard serial dilution on nutrient agar; format: cell-based; conditions: 18 h
[6] = system: Klebsiella pneumoniae 22 #3038; assay: MIC, standard serial dilution on nutrient agar; format: cell-based
Serratia 7 = assay: MIC, standard serial dilution on nutrient agar; format: cell-based; conditions: Serratia, 7, 18 h
[7] = system: Staphylococcus aureus 209P; assay: MIC, standard serial dilution on nutrient agar; format: cell-based
Serratia BOT = assay: MIC, standard serial dilution on nutrient agar; format: cell-based
Klebsiella HOU = assay: MIC, standard serial dilution on nutrient agar; format: cell-based
Serratia CAT = assay: MIC, standard serial dilution on nutrient agar; format: cell-based
[8] = system: Staphylococcus aureus MS 9610; assay: MIC, standard serial dilution on nutrient agar; format: cell-based
[9] = system: Staphylococcus aureus MS 9883; assay: MIC, standard serial dilution on nutrient agar; format: cell-based
Enterobacter 666 = assay: MIC, standard serial dilution on nutrient agar; format: cell-based; conditions: 37° C., 18 hours
Providencia ZAO = assay: MIC, standard serial dilution on nutrient agar; format: cell-based
Enterobacter HAU = assay: MIC, standard serial dilution on nutrient agar; format: cell-based
Providencia 19 = assay: MIC, standard serial dilution on nutrient agar; format: cell-based; conditions: Providencia, 19, 18 h
resistant bacteria [10] = conditions: in words, from Table 1
Procedure: The minimum inhibitory concentrations (mcg/ml) of the new compounds of this invention against various microorganisms were determined according to a standard serial dilution method using nutrient agar incubation medium at 37° C., the estimation being made after 18 hours incubation. For comparison purpose, the MIC. of kanamycin A, amikacin and dibekacin was also determined under the same test conditions.

[11] = Klebsiella BRIA, nutrient agar, 37° C., 18 hours, read-out: MIC.
[12] = Proteus vulgaris BAC, nutrient agar, 37° C., 18 hours, read-out: MIC.
[13] = Staphylococcus aureus 209P, nutrient agar, 37° C., 18 hours, read-out: MIC.
[14] = Serratia CAT, nutrient agar, 37° C., 18 hours, read-out: MIC.
[15] = MS9883, Staphylococcus aureus MS 9883, nutrient agar, 37° C., 18 hours, read-out: MIC.
[16] = Providencia ZAO, nutrient agar, 37° C., 18 hours, read-out: MIC.
[17] = Pseudomonas aeruginosa, A3, 18 h
[18] = Staphylococcus aureus, MS9610, 18 h

Row | Molecule | activity against resistant bacteria (resistant bacteria [1]) | MIC (Sarcina lutea PCI 1001) [µg/mL] | MIC (Providencia Pv 37) [µg/mL] | MIC (Klebsiella THO; Klebsiella, 18 h) [µg/mL] | MIC (Proteus rettgeri AUB; 18 h) [µg/mL] | MIC (Escherichia coli K-12) [µg/mL] | MIC (Klebsiella BRIA; [11]) [µg/mL] | MIC [4] [µg/mL] | MIC ([5]; Staphylococcus aureus, 18 h) [µg/mL] | MIC (Proteus vulgaris BAC; [12]) [µg/mL] | MIC (Erwinia 7-22) [µg/mL] | MIC (Pyocyanique) [µg/mL] | MIC (Serratia 7) [µg/mL] | MIC [7, 13] [µg/mL] | MIC (Serratia CAT; [14]) [µg/mL] | MIC [9, 15] [µg/mL] | MIC (Enterobacter 666) [µg/mL] | MIC (Providencia ZAO; [16]) [µg/mL] | MIC (Enterobacter HAU; Enterobacter, 18 h) [µg/mL] | MIC (Providencia 19) [µg/mL] | further results
1 | 1-N-((S)-2-hydroxy-4-aminobutyryl)-5-O-β-D-xylofuranosyl- or ribofuranosyl-neamine [butirosins] | active against some kanamycin- and ribostamycin-resistant bacteria |  |  |  |  |  |  |  |  |  |  |  |  |  |  |  |  |  |  |  | 
2 | NCC1CCC(O)C(OC2C(N)CC(NC(=O)C(O)CN)C(OC3OC(CO)C(O)C(N)C3O)C2O)O1 (racemic) [Compound No. 3, 1-N-(DL-2-hydroxy-3-aminopropionyl)-3',4'-dideoxykanamycin A] |  | 6.25 (≈ 11.6 µM) | 6.25 (≈ 11.6 µM) | 1.56 (≈ 2.89 µM) | 6.25 (≈ 11.6 µM) | 1.56 (≈ 2.89 µM) | 3.12 (≈ 5.78 µM) | 1.56 (≈ 2.89 µM) | 1.56 (≈ 2.89 µM) | 3.12 (≈ 5.78 µM) | 1.56 (≈ 2.89 µM) | 50 (≈ 92.7 µM) | 6.25 (≈ 11.6 µM) | 3.12 (≈ 5.78 µM) | 12.5 (≈ 23.2 µM) | 3.12 (≈ 5.78 µM) | 1.56 (≈ 2.89 µM) | 12.5 (≈ 23.2 µM) | 25 (≈ 46.3 µM) | 6.25 (≈ 11.6 µM) | MIC ([2]; Staphylococcus epidermides 109, nutrient agar, 37° C., 18 hours, read-out: MIC.): 3.12 µg/mL (≈ 5.78 µM); MIC ([3]; Pseudomonas aeruginosa A3, nutrient agar, 37° C., 18 hours, read-out: MIC.): 3.12 µg/mL (≈ 5.78 µM); MIC ([6]; Klebsiella pneumoniae 22 #3038, nutrient agar, 37° C., 18 hours, read-out: MIC.): 3.12 µg/mL (≈ 5.78 µM); MIC (Serratia BOT; Serratia BOT, nutrient agar, 37° C., 18 hours, read-out: MIC.): 12.5 µg/mL (≈ 23.2 µM); MIC (Klebsiella HOU; Klebsiella HOU, nutrient agar, 37° C., 18 hours, read-out: MIC.): 3.12 µg/mL (≈ 5.78 µM); MIC ([8]; MS9610, Staphylococcus aureus MS 9610, nutrient agar, 37° C., 18 hours, read-out: MIC.): 3.12 µg/mL (≈ 5.78 µM)
3 | NCC[C@H](O)C(=O)N[C@@H]1C[C@H](N)[C@@H](O[C@H]2O[C@H](CN)[C@@H](O)[C@H](O)[C@H]2O)[C@H](O)[C@H]1O[C@H]1O[C@H](CO)[C@@H](O)[C@H](N)[C@H]1O [Amikacin, 1-N-((S)-2-hydroxy-4-aminobutyryl)-kanamycin A] | cannot be inactivated by the kanamycin-resistant bacteria | 3.12 (≈ 5.33 µM) | 12.5 (≈ 21.3 µM) |  |  | 1.56 (≈ 2.66 µM) | 6.25 (≈ 10.7 µM) | 1.56 (≈ 2.66 µM) | 1.56 (≈ 2.66 µM) |  | 1.56 (≈ 2.66 µM) | 50 (≈ 85.4 µM) | 12.5 (≈ 21.3 µM) |  |  | 6.25 (≈ 10.7 µM) | 1.56 (≈ 2.66 µM) |  | 50 (≈ 85.4 µM) | 12.5 (≈ 21.3 µM) | MIC (Klebsiella THO; Klebsiella THO, nutrient agar, 37° C., 18 hours, read-out: MIC.): 6.25 µg/mL (≈ 10.7 µM); MIC ([2]; Staphylococcus, 109, 18 h): 3.12 µg/mL (≈ 5.33 µM); MIC (Proteus rettgeri AUB; Proteus rettgeri AUB, nutrient agar, 37° C., 18 hours, read-out: MIC.): 6.25 µg/mL (≈ 10.7 µM); MIC [3, 17]: 1.56 µg/mL (≈ 2.66 µM); MIC (Proteus vulgaris BAC; Proteus vulgaris, 18 h): 3.12 µg/mL (≈ 5.33 µM); MIC ([6]; Klebsiella pneumoniae, 18 h): 3.12 µg/mL (≈ 5.33 µM); MIC ([7]; Staphylococcus aureus, 209P, 18 h): 3.12 µg/mL (≈ 5.33 µM); MIC (Serratia BOT; Serratia, 18 h): 12.5 µg/mL (≈ 21.3 µM); MIC (Klebsiella HOU; Klebsiella, 18 h): 12.5 µg/mL (≈ 21.3 µM); MIC (Serratia CAT; Serratia, 18 h): 12.5 µg/mL (≈ 21.3 µM); MIC [8, 18]: 3.12 µg/mL (≈ 5.33 µM); MIC (Providencia ZAO; Providencia, 18 h): 12.5 µg/mL (≈ 21.3 µM)
4 | NCC1CCC(O)C(OC2C(N)CC(N)C(OC3OC(CO)C(O)C(N)C3O)C2O)O1 (stereo not drawn) [Compound No. 1, 3',4'-dideoxykanamycin A] |  | 12.5 (≈ 27.6 µM) | > 100 | 6.25 (≈ 13.8 µM) | > 100 | 6.25 (≈ 13.8 µM) |  | 6.25 (≈ 13.8 µM) |  | 3.12 (≈ 6.89 µM) | > 100 | > 100 | > 100 | 3.12 (≈ 6.89 µM) | 12.5 (≈ 27.6 µM) |  | 100 (≈ 221 µM) | 12.5 (≈ 27.6 µM) |  | 100 (≈ 221 µM) | MIC ([2]; Staphylococcus, 109, 18 h): 6.25 µg/mL (≈ 13.8 µM); MIC [3, 17]: 6.25 µg/mL (≈ 13.8 µM); MIC (Klebsiella BRIA; Klebsiella, 18 h): > 100 µg/mL; MIC ([5]; Staphylococcus aureus APOI, nutrient agar, 37° C., 18 hours, read-out: MIC.): 3.12 µg/mL (≈ 6.89 µM); MIC ([6]; Klebsiella pneumoniae, 18 h): > 100 µg/mL; MIC (Serratia BOT; Serratia, 18 h): 50 µg/mL (≈ 110 µM); MIC (Klebsiella HOU; Klebsiella, 18 h): > 100 µg/mL; antibacterial activity against various resistant bacteria (resistant bacteria [10]): remarkably higher antibacterial activity against various resistant bacteria than the parent kanamycin A; MIC [8, 18]: 6.25 µg/mL (≈ 13.8 µM); MIC ([9]; Staphylococcus aureus, MS9883, 18 h): 6.25 µg/mL (≈ 13.8 µM); MIC (Enterobacter HAU; Enterobacter HAU, nutrient agar, 37° C., 18 hours, read-out: MIC.): 12.5 µg/mL (≈ 27.6 µM)
